Source: patent US11013696B2, “Lipids and lipid compositions for the delivery of active agents” (Novartis AG, priority 2013, dated 2021)

Experiments:
[1] = Percent encapsulation of plasmid DNA in lipid nanoparticles (Quant-iT Ribogreen); type: physicochemical
Procedure: All equipment and disposable supplies are certified free of RNase activity by the manufacturer or rendered RNase free by use of the RNaseZap reagent (LifeTechnologies). Plasmid is encapsulated at a cationic lipid amine to DNA phosphate (N:P) molar ratio of 4:1. Lipids (cationic lipid, DSPC, cholesterol and lipidated PEG) are dissolved in ethanol. The molar ratios are 40:10:38:2, respectively. The mixture is sonicated briefly, then gently agitated for 5 minutes and then maintained at 37° C. until use. Plasmid is exchanged into citrate buffer pH 6.0 by use of Amicon Ultra-15 centrifugal concentrators, and the final concentration is adjusted to 0.053 mg/ml and held at 37° C. until use. An equal volume of lipids in ethanol, plasmid in citrate buffer, and citrate buffer alone are drawn into disposable syringes. Tubing leading from syringes containing lipids and DNA are attached to the T junction, and tubing leading from the syringe containing citrate buffer alone is paired with the tubing exiting the T-junction over a collection vessel containing a stir bar on an active stir plate. Syringes are placed in a syringe pump set to expel contents at a flow rate of 1 ml per minute. The pump is activated, and the collected DNA in lipid nanoparticles is transferred to SnakeSkin dialysis tubing (10,000 MWCO, Thermo Scientific). Material is dialyzed against RNAse- and pyrogen-free 1× phosphate buffered saline overnight at 4° C.
Percent encapsulation of plasmid DNA in lipid nanoparticles is determined using the Quant-iT Ribogreen RNA Assay kit (Life Technologies). The LNP-DNA suspension is assayed in buffer (DNA outside the particle), and buffer plus Triton X-100 detergent (total DNA). The difference calculated is the DNA inside the particle. Prepare a 1000 ng/mL stock using unpackaged plasmid and use this to generate a standard curve (0 ng/ml, 15.63-1000 ng/ml) in TE and TE+0.75% Triton X-100. Prepare LNP-plasmid samples in TE buffer and TE buffer+0.75% Triton X-100 with appropriate dilution so that reading is in the range of standard curve (25 fold). In a 384-well plate (Costar non-treated #3573) add 0.04 ml of standard (in duplicate) or sample (in triplicate) per well. Dilute Ribogreen reagent 240-fold in TE buffer and add 0.06 ml per well. Mix contents of wells and measure fluorescence (excitation=480 nm, emission=520 nm). Subtract background values (no DNA) from standard and test sample values and determine the concentrations of DNA in the samples using the standard curves. Determine the percent encapsulation of the sample by dividing the difference in concentrations between sample+triton and sample in buffer alone by the sample+triton concentration.

[2] = siRNA encapsulation in lipid nanoparticles (SYBR Gold); type: physicochemical; conditions: for % Encap.: FVII siRNA; for % encapsulation siRNA FVII: Table 2, FVII siRNA in LNP with the cationic lipid
In short: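 SYBR Gold fluorescence (ex 485/em 530 nm) of LNPs made by impinging-jet mixing of ethanolic lipids (cationic, cholesterol, optional DSPC, PEG/stealth lipid) with siRNA in citrate pH 4-6, siRNA:lipid ~0.05 wt/wt. Samples with and without Triton X-100 gave free and total siRNA for encapsulation efficiency.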

[3] = tested on: RSV F protein; assay: RSV immunogenicity: IgG titers after two IM immunizations with vA375 RNA expressing RSV-F in LNPs; type: in vivo, BALB/c mice; conditions: IM days 0 and 21, two weeks after two immunizations

Row | % Encap. ([1]; hLep plasmid) [%] | % Encap. ([1]; pDNA) [%] | % Encap. [2] [%] | SMILES | % encapsulation siRNA FVII [2] [%] | Immunogenicity (2wp2, log10 IgG titers) ([3]; 0.1 ng vA375 RNA) [log10 IgG titers] | Immunogenicity (2wp2, log10 IgG titers) ([3]; 1 ng vA375 RNA) [log10 IgG titers]
1 | 95.0 | 89.3 | 74.8 | CCCCC/C=C\C/C=C\CCCCCCCCC(CCC(=O)OC(COC(=O)CCCCCCC)COC(=O)CCCCCCC)OC(=O)OCCCN(C)C (centres unmarked) [Example 94, 2-(((13Z,16Z)-4-(((3-(dimethylamino)propoxy)carbonyl)oxy)docosa-13,16-dienoyl)oxy)propane-1,3-diyl dioctanoate] | 74.8 | – | –
2 | – | – | – | CCCCCCCCCC(=O)OCCC(CC(CCCCCCCC)CCCCCCCC)OC(=O)OCCCN(C)C (centres unmarked) [Example 70, 3-(((3-(dimethylamino)propoxy)carbonyl)oxy)-5-octyltridecyl decanoate] | 80.0 | 3.90 | 4.37
3 | 96.7 | 96.4 | 88.9 | CCCCCCCCCCCCC(CCOC(=O)CCCCC(OCCCCCCCC)OCCCCCCCC)OC(=O)OCCCN(CC)CC (centres unmarked) [Example 16, 3-(((3-(diethylamino)propoxy)carbonyl)oxy)pentadecyl 6,6-bis(octyloxy)hexanoate] | 88.9 | – | –
4 | – | – | – | CCCCCCCCCCCCC(CCOC(=O)CCCCC(OCC(CC)CCCC)OCC(CC)CCCC)OC(=O)OCCCN(CC)CC (centres unmarked) [Example 18, 3-(((3-(diethylamino)propoxy)carbonyl)oxy)pentadecyl 6,6-bis((2-ethylhexyl)oxy)hexanoate] | 91.2 | 3.5 | 4.26

Row | SMILES | % Encap. ([1]; hLep plasmid) [%] | % Encap. ([1]; pDNA) [%] | % Encap. [2] [%] | % encapsulation siRNA FVII [2] [%] | Immunogenicity (2wp2, log10 IgG titers) ([3]; 0.1 ng vA375 RNA) [log10 IgG titers] | Immunogenicity (2wp2, log10 IgG titers) ([3]; 1 ng vA375 RNA) [log10 IgG titers]
5 | CCCCC/C=C\C/C=C\CCCCCCCC(=O)OCC(COC(=O)CCCCCCC/C=C\C/C=C\CCCCC)OC(=O)CCC(CCCCCCCCCCCC)OC(=O)OCCCN(C)C (centres unmarked) [Example 80, (9Z,9′Z,12Z,12′Z)-2-((4-(((3-(dimethylamino)propoxy)carbonyl)oxy)hexadecanoyl)oxy)propane-1,3-diyl bis(octadeca-9,12-dienoate)] | – | – | 85.2 | 85.2 | – | –
6 | CCCCCCCCCCCCC(CCOC(=O)CCCCC(COC(=O)CCCCCCC)COC(=O)CCCCCCC)OC(=O)OCCCN(CC)CC (centres unmarked) [Example 1, 2-(10-dodecyl-3-ethyl-8,14-dioxo-7,9,13-trioxa-3-azaoctadecan-18-yl)propane-1,3-diyl dioctanoate] | 93.5 | 94.3 | – | – | 3.98 | 4.22
